Patent US9938322B2, “β-hairpin peptidomimetics” (priority 2013, dated 2018)
*1 amine or outer side, *2 acyl side, *3 side chain or, on linkers, in order; H or OH if unused. Where a SMILES comes first, the peptide text is derived from it. Side-chain parts run from the residue outwards. [ ]: non-standard residue; d: D form. The star is where a group is joined. Pro(3S-OH) = O=C(O)[C@H]1NCC[C@@H]1O; Cha = N[C@@H](CC1CCCCC1)C(=O)O; Chg = N[C@H](C(=O)O)C1CCCCC1; Tle = CC(C)(C)[C@H](N)C(=O)O; dDab = NCC[C@@H](N)C(=O)O; Orn = NCCC[C@H](N)C(=O)O; Dab = NCC[C@H](N)C(=O)O; Nva = CCC[C@H](N)C(=O)O; Abu = CC[C@H](N)C(=O)O; Dap = NC[C@H](N)C(=O)O; CO = O=C([*:1])[*:2]; NHiPr = CC(C)N*

Each molecule was assayed on human red blood cells (hRBC) (assay: Hemolysis of human red blood cells). Conditions: red cells of human, 1 h, 100.
Assay type: cell-based
How it was run: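 Washed fresh human erythrocytes (20% v/v, about 0.9×10^9 cells/ml final) incubated with peptide at 100 μg/ml for 1 h at 37° C with shaking. Supernatant OD540 read; hemolysis expressed relative to 2.5% Triton X-100 (100%) and PBS with 0.001% acetic acid (0%).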

SMILES	Hemolysis at 100 μg/ml [%]
CCC[C@@H]1NC(=O)[C@@H]2CCCN2C(=O)[C@H]2CCCN2C(=O)[C@H](CO)NC(=O)[C@H](C)NC(=O)[C@H](C2CCCCC2)NC(=O)[C@H](CCN)NC(=O)[C@H](Cc2c[nH]c3ccccc23)NC(=O)[C@H](CCN)NC(=O)[C@@H](CCN)NC(=O)[C@H](CCCN)NC(=O)[C@H](CCN)NC(=O)[C@H](CC2CCCCC2)NC(=O)[C@H](CO)NC1=O [compound 134] (cyclo([Nva]S[Cha][Dab][Orn][dDab][Dab]W[Dab][Chg]AS[dP]P))	8
CC(C)[C@@H]1NC(=O)[C@@H]2[C@@H](O)CCN2C(=O)[C@H]2CCCN2C(=O)[C@H](CO)NC(=O)[C@H](C)NC(=O)[C@H](C(C)(C)C)NC(=O)[C@H](CCN)NC(=O)[C@H](Cc2c[nH]c3ccccc23)NC(=O)[C@H](CCN)NC(=O)[C@@H](CCN)NC(=O)[C@H](CCCN)NC(=O)[C@H](CCN)NC(=O)[C@H](Cc2ccc(O)cc2)NC(=O)[C@H](CO)NC1=O [compound 56] (cyclo(AS[dP][Pro(3S-OH)]VSY[Dab][Orn][dDab][Dab]W[Dab][Tle]))	1
COC[C@@H]1NC(=O)[C@H](C(C)(C)C)NC(=O)[C@H](CCN)NC(=O)[C@H](Cc2c[nH]c3ccccc23)NC(=O)[C@H](CCN)NC(=O)[C@H](CCN)NC(=O)[C@H](CCCN)NC(=O)[C@H](CCN)NC(=O)[C@H](CC2CCCCC2)NC(=O)[C@H](C)NC(=O)[C@H](Cc2c[nH]c3ccccc23)NC(=O)[C@@H]2CCCN2C(=O)[C@H]2CCCN2C(=O)[C@H](CO)NC1=O [Ex. 5] (cyclo(WA[Cha][Dab][Orn][Dab][Dab]W[Dab][Tle]S(Me)S[dP]P))	0.5
C[C@@H]1NC(=O)[C@H](C(C)(C)C)NC(=O)[C@H](CCN)NC(=O)[C@H](Cc2c[nH]c3ccccc23)NC(=O)[C@H](CCN)NC(=O)[C@@H](CCN)NC(=O)[C@H](CCCN)NC(=O)[C@H](CCN)NC(=O)[C@H](C(C)(C)C)NC(=O)[C@H](CO)NC(=O)[C@H](Cc2c[nH]c3ccccc23)NC(=O)[C@@H]2CCCN2C(=O)[C@H]2CCCN2C(=O)[C@H](CO)NC1=O [compound 68] (cyclo(WS[Tle][Dab][Orn][dDab][Dab]W[Dab][Tle]AS[dP]P))	0
CC(=O)N[C@H](C(=O)NC[C@@H]1NC(=O)[C@H](Cc2c[nH]c3ccccc23)NC(=O)[C@@H]2CCCN2C(=O)[C@H]2CCCN2C(=O)[C@H](CO)NC(=O)[C@H](C)NC(=O)[C@H](C(C)(C)C)NC(=O)[C@H](CCN)NC(=O)[C@H](Cc2c[nH]c3ccccc23)NC(=O)[C@H](CCN)NC(=O)[C@@H](CCN)NC(=O)[C@H](CCCN)NC(=O)[C@H](CCN)NC(=O)[C@H](CC2CCCCC2)NC1=O)[C@@H](C)O [compound 15] (cyclo(W[Dap]([Thr-Ac])[Cha][Dab][Orn][dDab][Dab]W[Dab][Tle]AS[dP]P))	1
CC(C)C[C@@H]1NC(=O)[C@@H]2CCCN2C(=O)[C@H]2CCCN2C(=O)[C@H](CO)NC(=O)[C@H](Cc2ccc(O)cc2)NC(=O)[C@H](C(C)(C)C)NC(=O)[C@H](CCN)NC(=O)[C@H](Cc2c[nH]c3ccccc23)NC(=O)[C@H](CCN)NC(=O)[C@@H](CCN)NC(=O)[C@H](CCCN)NC(=O)[C@H](CCN)NC(=O)[C@H](Cc2ccc(O)cc2)NC(=O)[C@H](CC(=O)O)NC1=O [compound 112] (cyclo(LDY[Dab][Orn][dDab][Dab]W[Dab][Tle]YS[dP]P))	0
CC(C)C[C@@H]1NC(=O)[C@@H]2CCCN2C(=O)[C@H]2CCCN2C(=O)[C@H](CO)NC(=O)[C@H](CCN)NC(=O)[C@H](C(C)(C)C)NC(=O)[C@H](CCN)NC(=O)[C@H](Cc2c[nH]c3ccccc23)NC(=O)[C@H](CCN)NC(=O)[C@@H](CCN)NC(=O)[C@H](CCCN)NC(=O)[C@H](CCN)NC(=O)[C@H](Cc2ccc(O)cc2)NC(=O)[C@H]([C@@H](C)O)NC1=O [compound 115] (cyclo(LTY[Dab][Orn][dDab][Dab]W[Dab][Tle][Dab]S[dP]P))	0
CC[C@@H]1NC(=O)[C@H]([C@@H](C)CC)NC(=O)[C@@H]2CCCN2C(=O)[C@H]2CCCN2C(=O)[C@H](CO)NC(=O)[C@H](C)NC(=O)[C@H](C(C)(C)C)NC(=O)[C@H](CCN)NC(=O)[C@H](Cc2c[nH]c3ccccc23)NC(=O)[C@H](CCN)NC(=O)[C@@H](CCN)NC(=O)[C@H](CCCN)NC(=O)[C@H](CCN)NC(=O)[C@H](Cc2ccc(O)cc2)NC1=O [compound 126] (cyclo(I[Abu]Y[Dab][Orn][dDab][Dab]W[Dab][Tle]AS[dP]P))	0.5
CCC[C@@H]1NC(=O)[C@@H]2CCCN2C(=O)[C@H]2CCCN2C(=O)[C@H](CO)NC(=O)[C@H](C)NC(=O)[C@H](CC2CCCCC2)NC(=O)[C@H](CCN)NC(=O)[C@H](Cc2c[nH]c3ccccc23)NC(=O)[C@H](CCN)NC(=O)[C@@H](CCN)NC(=O)[C@H](CCCN)NC(=O)[C@H](CCN)NC(=O)[C@H](C(C)(C)C)NC(=O)[C@H](CO)NC1=O [compound 141] (cyclo([Nva]S[Tle][Dab][Orn][dDab][Dab]W[Dab][Cha]AS[dP]P))	8
CC(C)NC(=O)NC[C@@H]1NC(=O)[C@H](C)NC(=O)[C@H](C(C)(C)C)NC(=O)[C@H](CCN)NC(=O)[C@H](Cc2c[nH]c3ccccc23)NC(=O)[C@H](CCN)NC(=O)[C@@H](CCN)NC(=O)[C@H](CCCN)NC(=O)[C@H](CCN)NC(=O)[C@H](CC2CCCCC2)NC(=O)[C@H](C)NC(=O)[C@H](Cc2c[nH]c3ccccc23)NC(=O)[C@@H]2CCCN2C(=O)[C@H]2CCCN2C1=O [compound 20] (cyclo(WA[Cha][Dab][Orn][dDab][Dab]W[Dab][Tle]A[Dap]([CO-NHiPr])[dP]P))	4
CC(C)[C@@H]1NC(=O)[C@@H]2CCCN2C(=O)[C@H]2CCCN2C(=O)[C@H](CO)NC(=O)[C@H](C)NC(=O)[C@H](C(C)(C)C)NC(=O)[C@H](CCN)NC(=O)[C@H](Cc2c[nH]c3ccccc23)NC(=O)[C@H](CCN)NC(=O)[C@H](CCN)NC(=O)[C@H](CCCN)NC(=O)[C@H](CCN)NC(=O)[C@H](Cc2ccc(O)cc2)NC(=O)[C@H](CO)NC1=O [compound 49] (cyclo(VSY[Dab][Orn][Dab][Dab]W[Dab][Tle]AS[dP]P))	1
CC(C)C[C@@H]1NC(=O)[C@@H]2CCCN2C(=O)[C@H]2CCCN2C(=O)[C@H](CO)NC(=O)[C@H](C)NC(=O)[C@H](C(C)(C)C)NC(=O)[C@H](CCN)NC(=O)[C@H](Cc2c[nH]c3ccccc23)NC(=O)[C@H](CN)NC(=O)[C@@H](CCN)NC(=O)[C@H](CCCN)NC(=O)[C@H](CCN)NC(=O)[C@H](Cc2ccc(O)cc2)NC(=O)[C@H](CO)NC1=O [Ex. 103] (cyclo(LSY[Dab][Orn][dDab][Dap]W[Dab][Tle]AS[dP]P))	1
